Legend:
AMPK-alpha1 = AMPK-alpha1 (Homo sapiens, UniProt Q13131); assay: KINOMEscan; assay type: binding; conditions: read-out: % Inhibition AMBIT, AMP_K-alpha1
AMPK-alpha2 = AMPK-alpha2 (Homo sapiens, UniProt P54646); assay: KINOMEscan; assay type: binding; conditions: read-out: % Inhibition AMBIT, AMPK-alpha2
AURORA B KINASE = AURORA B KINASE (Homo sapiens, UniProt Q96GD4); assay: KINOMEscan; assay type: binding; conditions: read-out: % Inhibition AMBIT, AURORA B KINASE
AURORA C KINASE = AURORA C KINASE (Homo sapiens, UniProt Q9UQB9); assay: KINOMEscan; assay type: binding; conditions: read-out: % Inhibition AMBIT, AURORA C KINASE
CDK7 = CDK7 (Homo sapiens, UniProt P50613); assay: KINOMEscan; assay type: binding; conditions: read-out: % Inhibition AMBIT, CDK7
CDK7, sequence (P50613 whole entry): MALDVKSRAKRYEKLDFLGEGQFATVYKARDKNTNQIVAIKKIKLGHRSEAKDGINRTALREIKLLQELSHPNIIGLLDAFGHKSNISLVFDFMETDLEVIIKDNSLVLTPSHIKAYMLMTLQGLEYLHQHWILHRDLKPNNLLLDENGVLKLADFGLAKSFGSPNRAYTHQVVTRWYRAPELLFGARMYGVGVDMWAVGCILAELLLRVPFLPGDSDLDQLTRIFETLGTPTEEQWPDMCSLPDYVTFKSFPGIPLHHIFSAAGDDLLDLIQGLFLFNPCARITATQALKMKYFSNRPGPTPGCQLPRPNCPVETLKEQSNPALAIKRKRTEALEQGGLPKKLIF

PDGFR-alpha = PDGFR-alpha (Homo sapiens, UniProt P16234); assay: KINOMEscan; assay type: binding; conditions: read-out: % Inhibition AMBIT, PDGFR-alpha
PDGFR-alpha, sequence (P16234 24-1089): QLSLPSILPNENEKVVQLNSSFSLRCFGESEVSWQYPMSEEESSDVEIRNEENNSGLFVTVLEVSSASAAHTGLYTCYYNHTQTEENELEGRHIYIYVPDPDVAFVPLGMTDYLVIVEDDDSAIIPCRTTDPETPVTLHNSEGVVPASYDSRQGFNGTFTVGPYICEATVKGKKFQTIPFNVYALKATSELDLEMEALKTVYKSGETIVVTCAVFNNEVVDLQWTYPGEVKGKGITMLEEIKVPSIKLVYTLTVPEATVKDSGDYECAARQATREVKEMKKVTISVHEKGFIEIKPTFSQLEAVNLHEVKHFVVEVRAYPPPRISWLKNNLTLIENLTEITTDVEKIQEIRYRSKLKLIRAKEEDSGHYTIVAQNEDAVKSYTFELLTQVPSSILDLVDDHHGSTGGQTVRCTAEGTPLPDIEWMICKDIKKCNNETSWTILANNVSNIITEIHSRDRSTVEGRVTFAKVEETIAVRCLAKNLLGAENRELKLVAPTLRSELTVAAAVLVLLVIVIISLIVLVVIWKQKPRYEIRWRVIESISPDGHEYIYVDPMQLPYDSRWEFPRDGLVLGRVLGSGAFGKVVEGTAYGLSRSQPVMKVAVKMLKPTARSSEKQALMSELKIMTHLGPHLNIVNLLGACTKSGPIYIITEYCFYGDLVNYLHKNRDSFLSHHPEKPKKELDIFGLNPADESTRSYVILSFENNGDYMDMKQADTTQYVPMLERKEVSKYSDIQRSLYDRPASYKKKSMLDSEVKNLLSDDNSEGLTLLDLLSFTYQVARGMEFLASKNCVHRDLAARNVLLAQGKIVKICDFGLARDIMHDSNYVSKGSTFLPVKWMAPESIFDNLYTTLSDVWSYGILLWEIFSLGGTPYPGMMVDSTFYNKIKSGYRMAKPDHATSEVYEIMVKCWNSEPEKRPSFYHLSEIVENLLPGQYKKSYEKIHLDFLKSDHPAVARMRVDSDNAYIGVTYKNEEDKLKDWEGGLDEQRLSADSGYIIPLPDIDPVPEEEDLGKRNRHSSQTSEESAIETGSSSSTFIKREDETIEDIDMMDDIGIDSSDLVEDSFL

PDGFR-beta = PDGFR-beta (Homo sapiens, UniProt P09619); assay: KINOMEscan; assay type: binding; conditions: read-out: % Inhibition AMBIT, PDGFR-beta
PDGFR-beta, sequence (P09619 33-1106): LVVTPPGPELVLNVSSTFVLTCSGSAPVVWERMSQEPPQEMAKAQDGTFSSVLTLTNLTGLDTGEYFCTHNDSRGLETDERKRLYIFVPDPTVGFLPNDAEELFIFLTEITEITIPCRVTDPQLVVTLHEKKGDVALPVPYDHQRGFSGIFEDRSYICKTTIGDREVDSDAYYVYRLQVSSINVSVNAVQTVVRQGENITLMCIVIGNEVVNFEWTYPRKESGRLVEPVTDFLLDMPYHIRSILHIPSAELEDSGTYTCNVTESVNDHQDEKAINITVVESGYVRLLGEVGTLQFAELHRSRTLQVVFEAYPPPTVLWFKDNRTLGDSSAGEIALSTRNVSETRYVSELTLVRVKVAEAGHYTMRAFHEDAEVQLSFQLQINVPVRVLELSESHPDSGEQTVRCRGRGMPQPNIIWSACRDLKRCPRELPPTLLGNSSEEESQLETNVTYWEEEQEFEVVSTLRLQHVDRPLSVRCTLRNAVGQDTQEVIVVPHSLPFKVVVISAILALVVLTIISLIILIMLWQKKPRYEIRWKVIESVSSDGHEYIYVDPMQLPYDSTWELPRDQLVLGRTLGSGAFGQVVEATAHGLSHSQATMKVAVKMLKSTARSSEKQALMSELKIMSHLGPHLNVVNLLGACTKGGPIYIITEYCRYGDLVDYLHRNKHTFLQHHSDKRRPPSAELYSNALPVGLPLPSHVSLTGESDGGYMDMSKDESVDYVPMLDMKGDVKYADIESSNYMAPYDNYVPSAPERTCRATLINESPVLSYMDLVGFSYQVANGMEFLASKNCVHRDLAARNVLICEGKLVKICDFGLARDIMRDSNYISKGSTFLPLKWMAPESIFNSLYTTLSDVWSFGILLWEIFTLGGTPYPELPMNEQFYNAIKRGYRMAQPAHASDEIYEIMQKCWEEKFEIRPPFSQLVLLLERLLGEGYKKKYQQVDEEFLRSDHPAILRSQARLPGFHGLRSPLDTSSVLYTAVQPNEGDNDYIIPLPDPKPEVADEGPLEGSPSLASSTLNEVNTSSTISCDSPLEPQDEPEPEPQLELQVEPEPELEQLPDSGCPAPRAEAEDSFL

PLK4 = PLK4 (Homo sapiens, UniProt O00444); assay: KINOMEscan; assay type: binding; conditions: read-out: % Inhibition AMBIT, PLK4
PLK4, sequence (O00444 whole entry): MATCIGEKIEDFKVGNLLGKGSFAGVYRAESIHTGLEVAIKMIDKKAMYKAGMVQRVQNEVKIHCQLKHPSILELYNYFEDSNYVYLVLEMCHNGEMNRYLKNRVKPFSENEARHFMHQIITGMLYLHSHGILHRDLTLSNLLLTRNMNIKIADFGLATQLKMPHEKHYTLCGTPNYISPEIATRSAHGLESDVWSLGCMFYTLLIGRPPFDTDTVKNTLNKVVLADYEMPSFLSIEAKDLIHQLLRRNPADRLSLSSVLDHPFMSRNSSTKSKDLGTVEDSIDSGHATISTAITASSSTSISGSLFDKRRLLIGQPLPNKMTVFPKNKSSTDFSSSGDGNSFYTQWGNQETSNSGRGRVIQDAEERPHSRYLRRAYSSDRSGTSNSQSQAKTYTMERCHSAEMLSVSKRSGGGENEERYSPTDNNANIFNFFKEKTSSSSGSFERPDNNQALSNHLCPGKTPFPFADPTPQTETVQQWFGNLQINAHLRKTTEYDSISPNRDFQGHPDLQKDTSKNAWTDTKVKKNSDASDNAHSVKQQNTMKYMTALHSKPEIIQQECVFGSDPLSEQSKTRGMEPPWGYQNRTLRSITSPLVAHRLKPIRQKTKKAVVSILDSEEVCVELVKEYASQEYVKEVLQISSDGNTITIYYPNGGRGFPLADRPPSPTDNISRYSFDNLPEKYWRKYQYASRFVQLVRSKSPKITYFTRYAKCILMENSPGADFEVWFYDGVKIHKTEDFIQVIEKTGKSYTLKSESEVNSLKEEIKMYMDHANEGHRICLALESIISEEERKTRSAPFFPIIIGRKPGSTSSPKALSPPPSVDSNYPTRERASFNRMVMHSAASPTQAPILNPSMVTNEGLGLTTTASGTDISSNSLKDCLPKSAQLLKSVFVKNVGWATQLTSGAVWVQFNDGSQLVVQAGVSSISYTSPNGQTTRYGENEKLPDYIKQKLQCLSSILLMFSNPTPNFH

FLT1 = FLT1 (Homo sapiens, UniProt P17948); assay: KINOMEscan; assay type: binding; conditions: read-out: % Inhibition AMBIT, FLT1
FLT4 = FLT4 (Homo sapiens, UniProt P35916); assay: KINOMEscan; assay type: binding; conditions: read-out: % Inhibition AMBIT, FLT4
STK11 = STK11 (Homo sapiens, UniProt Q15831); assay: KINOMEscan; assay type: binding; conditions: read-out: % Inhibition AMBIT, STK11
RPS6KA1 (Kin. Dom.1) = RPS6KA1 (Kin. Dom.1) (Homo sapiens, UniProt Q15418); assay: KINOMEscan; assay type: binding; conditions: read-out: % Inhibition AMBIT, RPS6KA1 (Kin. Dom.1)
RPS6KA2 (Kin. Dom.1) = RPS6KA2 (Kin. Dom.1) (Homo sapiens, UniProt Q15349); assay: KINOMEscan; assay type: binding; conditions: read-out: % Inhibition AMBIT, RPS6KA2 (Kin. Dom.1)
RPS6KA4 (Kin. Dom.1) = RPS6KA4 (Kin. Dom.1) (Homo sapiens, UniProt O75676); assay: KINOMEscan; assay type: binding; conditions: read-out: % Inhibition AMBIT, RPS6KA4 (Kin. Dom.1)
RPS6KA4 (Kin. Dom.2) = RPS6KA4 (Kin. Dom.2) (Homo sapiens, UniProt O75676); assay: KINOMEscan; assay type: binding; conditions: read-out: % Inhibition AMBIT, RPS6KA4 (Kin. Dom.2)
RPS6KA6 (Kin. Dom.1) = RPS6KA6 (Kin. Dom.1) (Homo sapiens, UniProt Q9UK32); assay: KINOMEscan; assay type: binding; conditions: read-out: % Inhibition AMBIT, RPS6KA6 (Kin. Dom.1)
ROCK2 = ROCK2 (Homo sapiens, UniProt O75116); assay: KINOMEscan; assay type: binding; conditions: read-out: % Inhibition AMBIT, ROCK2
AKT3 = AKT3 (Homo sapiens, UniProt Q9Y243); assay: KINOMEscan; assay type: binding; conditions: read-out: % Inhibition AMBIT, AKT3
AKT3, sequence (Q9Y243 whole entry): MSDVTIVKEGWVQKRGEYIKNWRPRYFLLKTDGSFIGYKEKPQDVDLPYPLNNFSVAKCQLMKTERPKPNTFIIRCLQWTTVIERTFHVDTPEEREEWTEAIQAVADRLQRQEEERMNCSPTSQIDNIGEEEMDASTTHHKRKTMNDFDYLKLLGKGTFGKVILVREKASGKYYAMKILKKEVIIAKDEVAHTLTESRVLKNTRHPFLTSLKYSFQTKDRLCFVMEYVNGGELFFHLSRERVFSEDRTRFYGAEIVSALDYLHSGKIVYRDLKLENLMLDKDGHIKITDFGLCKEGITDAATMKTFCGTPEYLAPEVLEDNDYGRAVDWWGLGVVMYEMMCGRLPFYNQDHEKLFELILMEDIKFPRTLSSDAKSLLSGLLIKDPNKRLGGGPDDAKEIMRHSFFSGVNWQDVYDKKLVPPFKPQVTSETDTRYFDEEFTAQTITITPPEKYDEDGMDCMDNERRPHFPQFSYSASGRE

AURORA A KINASE = AURORA A KINASE (Homo sapiens, UniProt O14965); assay: KINOMEscan; assay type: binding; conditions: read-out: % Inhibition AMBIT, AURORA A KINASE
BRAF = BRAF (Homo sapiens, UniProt P15056); assay: KINOMEscan; assay type: binding; conditions: read-out: % Inhibition AMBIT, BRAF
DMPK = DMPK (Homo sapiens, UniProt Q09013); assay: KINOMEscan; assay type: binding; conditions: read-out: % Inhibition AMBIT, DMPK
ERBB2 = ERBB2 (Homo sapiens, UniProt P04626); assay: KINOMEscan; assay type: binding; conditions: read-out: % Inhibition AMBIT, ERBB2
ERBB4 = ERBB4 (Homo sapiens, UniProt Q15303); assay: KINOMEscan; assay type: binding; conditions: read-out: % Inhibition AMBIT, ERBB4
GSK3A = GSK3A (Homo sapiens, UniProt P49840); assay: KINOMEscan; assay type: binding; conditions: read-out: % Inhibition AMBIT, GSK3A
GSK3B = GSK3B (Homo sapiens, UniProt P49841); assay: KINOMEscan; assay type: binding; conditions: read-out: % Inhibition AMBIT, GSK3B
MAP3K5 (ASK1) = MAP3K5 (ASK1) (Homo sapiens, UniProt Q99683); assay: KINOMEscan; assay type: binding; conditions: read-out: % Inhibition AMBIT, MAP3K5 (ASK1)
MAPK/ERK2 = MAPK/ERK2 (Homo sapiens, UniProt P28482); assay: KINOMEscan; assay type: binding; conditions: read-out: % Inhibition AMBIT, MAPK/ERK2
PIM1 = PIM1 (Homo sapiens, UniProt P11309); assay: KINOMEscan; assay type: binding; conditions: read-out: % Inhibition AMBIT, PIM1
PIM2 = PIM2 (Homo sapiens, UniProt Q9P1W9); assay: KINOMEscan; assay type: binding; conditions: read-out: % Inhibition AMBIT, PIM2
PLK1 = PLK1 (Homo sapiens, UniProt P53350); assay: KINOMEscan; assay type: binding; conditions: read-out: % Inhibition AMBIT, PLK1
PLK3 = PLK3 (Homo sapiens, UniProt Q9H4B4); assay: KINOMEscan; assay type: binding; conditions: read-out: % Inhibition AMBIT, PLK3
RAF = RAF (Homo sapiens, UniProt P04049); assay: KINOMEscan; assay type: binding; conditions: read-out: % Inhibition AMBIT, RAF
RAF, sequence (P04049 whole entry): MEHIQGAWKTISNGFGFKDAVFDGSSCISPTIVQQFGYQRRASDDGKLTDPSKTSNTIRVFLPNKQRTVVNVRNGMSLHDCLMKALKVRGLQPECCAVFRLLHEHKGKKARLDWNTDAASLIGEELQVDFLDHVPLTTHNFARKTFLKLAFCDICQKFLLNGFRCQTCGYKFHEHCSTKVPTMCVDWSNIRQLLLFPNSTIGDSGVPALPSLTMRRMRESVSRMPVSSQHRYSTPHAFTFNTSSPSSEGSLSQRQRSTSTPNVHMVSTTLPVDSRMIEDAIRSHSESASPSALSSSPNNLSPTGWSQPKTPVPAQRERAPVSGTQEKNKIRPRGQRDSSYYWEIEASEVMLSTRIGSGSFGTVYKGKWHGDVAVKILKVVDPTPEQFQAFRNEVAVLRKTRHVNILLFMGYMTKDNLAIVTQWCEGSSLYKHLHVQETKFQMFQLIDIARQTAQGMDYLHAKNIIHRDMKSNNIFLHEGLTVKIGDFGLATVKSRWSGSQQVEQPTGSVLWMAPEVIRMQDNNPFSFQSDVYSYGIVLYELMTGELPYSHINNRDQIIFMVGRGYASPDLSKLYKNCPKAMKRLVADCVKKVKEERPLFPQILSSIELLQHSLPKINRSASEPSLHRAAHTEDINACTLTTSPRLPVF

RPS6KA6 (Kin. Dom.2) = RPS6KA6 (Kin. Dom.2) (Homo sapiens, UniProt Q9UK32); assay: KINOMEscan; assay type: binding; conditions: read-out: % Inhibition AMBIT, RPS6KA6 (Kin. Dom.2)
human iPSC-CMs [1] = assay: ATP depletion; assay type: cell-based; conditions: for depletion of ATP: 31 µM sunitinib; for TC50 based on dose–response data for ATP depletion: human iPSC-CMs, 24 h treatment; for attenuation of sunitinib-mediated ATP depletion: 3 h pretreatment with 1 or 2 mM, then 8 to 31 µM sunitinib for 24 h
human iPSC-CMs [2] = assay: LDH release in iCell cardiomyocytes; assay type: cell-based
human iPSC-CMs [3] = assay: Caspase 3/7 cleavage; assay type: cell-based; conditions: for maximal attenuation of caspase 3/7 cleavage: 23 µM sunitinib 24 h
human iPSC-CMs [4] = assay: GSH oxidation; assay type: cell-based
pACC-S79, pAMPK-T172 = assay: Western blot of AMPK/ACC signaling in iCell cardiomyocytes; assay type: cell-based, human; conditions: iPSC-CMs; for phosphorylation status of AMPKα-Thr172 and ACC-Ser79: 1 or 2 mM for 3 h
human iPSC-CMs [5] = assay: Microelectrode array; assay type: cell-based; conditions: MEA; for change of beat rate from baseline: up to 2 mM
RSK1/2/4 = assay: 10 µM AMBIT screen; assay type: binding
human iPSC-CMs [6] = assay: Cytotoxicity dose response; assay type: cell-based; conditions: for concentration without cytotoxicity (no ATP depletion or LDH release): 4 to 250 µM tested, 24 h
317 kinases = conditions: at 0.1 µM; ref Karaman et al., 2008; cited from earlier work
RSK1 = conditions: read-out: IC50 RSK1; kinase activity assay; ref Hasinoff et al., 2008; cited from earlier work
Nav1.5 channel = Nav1.5 channel (Homo sapiens, UniProt Q14524); assay: PatchXpress Nav1.5 channel assay in CHL-Nav1.5 cells; assay type: cell-based; conditions: read-out: IC50 of Nav1.5 channel inhibition
[7] = 23 µM sunitinib, 24 h, iPSC-CMs
[8] = 31 µM sunitinib, 24 h, iPSC-CMs

AURORA B KINASE, sequence (Q96GD4 whole entry): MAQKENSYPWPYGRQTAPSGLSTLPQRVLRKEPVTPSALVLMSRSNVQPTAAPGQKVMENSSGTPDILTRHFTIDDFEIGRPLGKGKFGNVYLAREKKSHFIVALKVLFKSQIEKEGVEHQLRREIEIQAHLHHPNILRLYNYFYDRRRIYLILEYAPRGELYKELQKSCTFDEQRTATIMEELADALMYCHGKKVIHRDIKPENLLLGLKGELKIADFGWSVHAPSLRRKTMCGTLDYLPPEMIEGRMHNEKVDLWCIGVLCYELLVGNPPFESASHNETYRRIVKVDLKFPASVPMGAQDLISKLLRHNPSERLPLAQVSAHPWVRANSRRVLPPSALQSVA

Compound: CCN(CC)CCNC(=O)c1c(C)[nH]c(/C=C2\C(=O)Nc3ccc(F)cc32)c1C [sunitinib, Sunitinib]
- inhibition at 10 µM (AMPK-alpha1): 100%
- inhibition at 10 µM (AMPK-alpha2): 99%
- inhibition at 10 µM (AURORA B KINASE): 100%
- inhibition at 10 µM (AURORA C KINASE): 100%
- inhibition at 10 µM (CDK7): 100%
- inhibition at 10 µM (PDGFR-alpha): 100%
- inhibition at 10 µM (PDGFR-beta): 100%
- inhibition at 10 µM (PLK4): 100%
- inhibition at 10 µM (FLT1): 100%
- inhibition at 10 µM (FLT4): 100%
- inhibition at 10 µM (STK11): 100%
- inhibition at 10 µM (RPS6KA1 (Kin. Dom.1)): 100%
- inhibition at 10 µM (RPS6KA2 (Kin. Dom.1)): 100%
- inhibition at 10 µM (RPS6KA4 (Kin. Dom.1)): 100%
- inhibition at 10 µM (RPS6KA4 (Kin. Dom.2)): 99%
- inhibition at 10 µM (RPS6KA6 (Kin. Dom.1)): 97%
- inhibition at 10 µM (ROCK2): 97%
- inhibition at 10 µM (AKT3): < 50%
- inhibition at 10 µM (AURORA A KINASE): < 50%
- inhibition at 10 µM (BRAF): < 50%
- inhibition at 10 µM (DMPK): < 50%
- inhibition at 10 µM (ERBB2): < 50%
- inhibition at 10 µM (ERBB4): < 50%
- inhibition at 10 µM (GSK3A): < 50%
- inhibition at 10 µM (GSK3B): < 50%
- inhibition at 10 µM (MAP3K5 (ASK1)): < 50%
- inhibition at 10 µM (MAPK/ERK2): < 50%
- inhibition at 10 µM (PIM1): < 50%
- inhibition at 10 µM (PIM2): < 50%
- inhibition at 10 µM (PLK1): < 50%
- inhibition at 10 µM (PLK3): < 50%
- inhibition at 10 µM (RAF): < 50%
- inhibition at 10 µM (RPS6KA6 (Kin. Dom.2)): < 50%
- ATP depleted compared to vehicle (human iPSC-CMs [1]; [7]): greater than 60%
- depletion of ATP (human iPSC-CMs [1]; 24 h, iPSC-CMs): ~100%
- depletion of ATP (human iPSC-CMs [1]; by 4.5 h, iPSC-CMs (unpublished results)): 80%
- TC50 based on dose–response data for ATP depletion (human iPSC-CMs [1]): 16.7 µM
- increase in LDH release compared to vehicle (human iPSC-CMs [2]; [7]): 300%
- release of LDH (human iPSC-CMs [2]; [8]): ~100%
- cleavage of caspase 3/7 (human iPSC-CMs [3]; [8]): ~100%
- GSH oxidized compared to vehicle (human iPSC-CMs [4]; [7]): 67%
- oxidation of GSH (human iPSC-CMs [4]; [8]): ~100%
- inhibition of phosphorylation of AMPK's downstream target ACC-Ser79 (pACC-S79, pAMPK-T172; 15 µM for 2 h): inhibited AMPK
- phosphorylation status of ACC-S79 (pACC-S79, pAMPK-T172; 15.6 µM, 2 h): decreased the phosphorylation status of ACC-S79
- amplitude of the Na+-peak (human iPSC-CMs [5]; serially increasing additions): dose-dependently reduced the amplitude of the Na^+-peak
- inhibition of RSK1/2/4 (RSK1/2/4): 100%
- IC50 of cardiotoxicity (loss of cellular ATP, oxidized glutathione, apoptosis) (human iPSC-CMs [6]): low micromolar range
- number of kinases bound of the 317 kinases tested (317 kinases): 57
- share of the 317 kinases tested that were bound (317 kinases): 18%

Compound: CN(C)C(=N)N=C(N)N [metformin]
- attenuation of sunitinib-mediated ATP depletion (human iPSC-CMs [1]): Neither AICAR (Fig. 3A) nor metformin (Fig. 3E) attenuated
- maximal attenuation of LDH release (human iPSC-CMs [2]; 1 mM pretreatment 3 h, 23 µM sunitinib 24 h): 90%
- maximal attenuation of caspase 3/7 cleavage (human iPSC-CMs [3]; 1 mM pretreatment 3 h): 107%
- reduction in oxidation of GSH (human iPSC-CMs [4]; 2 mM pretreatment 3 h, 23 µM sunitinib 24 h): 35%
- phosphorylation status of AMPKα-Thr172 and ACC-Ser79 (pACC-S79, pAMPK-T172): activated AMPK signaling
- change of beat rate from baseline (human iPSC-CMs [5]): ≤ 1%

Compound: COCCNCCCn1c(C(=O)CF)c(-c2ccc(C)cc2)c2c(N)ncnc21 [RSK FMK-MEA, fluoromethylketone methoxyethylamine]
- TC50 based on dose–response data for ATP depletion (human iPSC-CMs [1]): 250 µM
- concentration with irregular (arrhythmic) beats (human iPSC-CMs [5]; 15 min at each concentration): 3000 nM
- amplitude of the Na+-peak (human iPSC-CMs [5]; serially increasing additions): dose-dependent reduction in the amplitude of the Na^+-peak
- fPDc (field-potential duration corrected by beat rate, Fridericia) (human iPSC-CMs [5]; serially increasing additions): dose-dependent prolongation of fPDc
- IC50 (Nav1.5 channel): 56.8 µM
- concentration without cytotoxicity (no ATP depletion or LDH release) (human iPSC-CMs [6]): up to 62 µM
- concentration without cytotoxicity (no ATP depletion or LDH release) (human iPSC-CMs [6]; listed as RSK-FMK-MEA): below 250 µM

Compound: NC(=O)c1ncn([C@@H]2O[C@H](CO)[C@@H](O)[C@H]2O)c1N [AICAR, aminoimidazole carboxamide ribonucleotide]
- attenuation of sunitinib-mediated ATP depletion (human iPSC-CMs [1]): Neither AICAR (Fig. 3A) nor metformin (Fig. 3E) attenuated
- reduction of LDH release (human iPSC-CMs [2]; 1 mM pretreatment 3 h, 23 or 31 µM sunitinib 24 h): 80%
- maximal attenuation of caspase 3/7 cleavage (human iPSC-CMs [3]; 2 mM pretreatment 3 h): 108%
- attenuation of oxidized GSH (human iPSC-CMs [4]; 1 mM pretreatment 3 h, 31 µM sunitinib 24 h): 14%
- phosphorylation status of AMPKα-Thr172 and ACC-Ser79 (pACC-S79, pAMPK-T172): activated AMPK signaling
- change of beat rate from baseline (human iPSC-CMs [5]): ≤ 1%

From PMC5858560 (Toxicology and applied pharmacology, 2011)
